Where “and” joins values, the source holds several entries; their conditions need not be identical. Equal values may be shown once.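 Five concentrations, 48 hours, 96-well plates. At the GI50, growth is halved. Definition used: TGI = concentration required for complete inhibition of growth.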 Some results are limits rather than exact numbers.

This passage reports TGI and GI50 results from PubChem BioAssay (NCI).

Test systems include KM12 colon; DMS 114 small cell lung; HOP-18 NSCLC; SK-MEL-28 melanoma; KM20L2 colon; DMS 273 small cell lung; NCI/ADR-RES ovarian; HS 578T breast; T-47D breast; MCF7 breast.
What all share (assay): inhibition of tumour cell growth, NCI panel, 48 h

Turning to `CCOc1ccccc1NC(=O)C(=O)CC(=O)c1c(C)n([O-])c2ccccc2[n+]1=O`, the TGI with KM12 colon, with DMS 114 small cell lung, in the test on HOP-18 NSCLC, in the test with SK-MEL-28 melanoma, in the test on KM20L2 colon and with DMS 273 small cell lung was more than 100 µM throughout.

Take `O=C(c1ccccc1)C(c1ccccc1)C1(O)C(=O)Nc2c(Cl)cc(Cl)cc21` (configuration not stated): the TGI is 82.8 µM with KM12 colon; 33.9 µM with DMS 114 small cell lung; 36.6 µM with HOP-18 NSCLC; 34.1 µM with SK-MEL-28 melanoma; more than 100 µM in the test with KM20L2 colon; 83.2 µM in the test on DMS 273 small cell lung.

Regarding `COc1cc(CCc2ccc(OCCN(C)C)cc2)cc(OC)c1OC`, the TGI with KM12 colon, with DMS 114 small cell lung, with HOP-18 NSCLC, with SK-MEL-28 melanoma, in the test with KM20L2 colon and in the test on DMS 273 small cell lung was more than 100 µM throughout.

In the case of `CCOC(=O)[C@@]1(C)C=C2O[C@@H]3OC4(CCCCC4)O[C@@H]3C2=C2C(O)=CC=C(O)[C@]21C(=O)OC`, the TGI with KM12 colon, in the test on DMS 114 small cell lung, with HOP-18 NSCLC, with SK-MEL-28 melanoma, with KM20L2 colon and in the test on DMS 273 small cell lung was more than 68 µM each time.

Consider `COc1cc([C@H]2c3cc4c(cc3O[C@@]3(O)COC(=O)[C@@H]23)OCO4)cc(OC)c1OC`, for which the TGI in the test on NCI/ADR-RES ovarian, with KM12 colon, in the test on DMS 114 small cell lung, in the test on HOP-18 NSCLC, in the test with HS 578T breast and in the test with T-47D breast was more than 100 µM in each case. The TGI in the test on SK-MEL-28 melanoma, in the test with MCF7 breast, with KM20L2 colon and in the test on DMS 273 small cell lung was more than 100 µM throughout.

For `Nn1c(-c2ccccc2)nc2ccc(Br)cc2c1=O`, the TGI in the test with KM12 colon, in the test with DMS 114 small cell lung, in the test on HOP-18 NSCLC, with SK-MEL-28 melanoma, in the test on KM20L2 colon and in the test with DMS 273 small cell lung was more than 100 µM in each case.

For `Cc1nc2c(nc1C)C(=O)c1cc(O)ccc1C2=O`, the TGI in the test with KM12 colon was more than 100 µM; in the test on DMS 114 small cell lung, more than 90.6 µM; with HOP-18 NSCLC, more than 100 µM; with SK-MEL-28 melanoma it was more than 100 µM; in the test with KM20L2 colon, more than 100 µM; in the test with DMS 273 small cell lung it was more than 100 µM.

Turning to `C[C@@H]1C[C@@H](O)[C@]2(O)O[C@@H]3C[C@@]4(C=O)[C@@H](CC[C@@H]5[C@@H]4CC[C@]4(C)[C@@H](C6=CC(=O)OC6)CC[C@]54O)C[C@H]3O[C@@H]2O1`, the TGI in the test with NCI/ADR-RES ovarian is 0.118 µM; in the test with KM12 colon it was 0.476 µM and 0.217 µM and 0.608 µM; in the test on DMS 114 small cell lung, 0.0094 µM and 0.0134 µM; in the test with T-47D breast, 0.89 µM; with SK-MEL-28 melanoma it was 0.143 µM and 0.683 µM and 0.354 µM; with MCF7 breast, 0.16 µM. Also, the TGI with KM20L2 colon is 0.0631 µM and 0.107 µM; with DMS 273 small cell lung it was 0.0724 µM and 0.0123 µM. For the same molecule, the GI50 with KM12 colon was 0.0722 µM and 0.0346 µM; with DMS 114 small cell lung, 0.005 µM; with HOP-18 NSCLC it was 0.005 µM; in the test on SK-MEL-28 melanoma, 0.167 µM and 0.0409 µM; with KM20L2 colon, 0.0218 µM.

Take `Cn1c2c(c3ccccc31)CCN(CCCCN1CCc3c(n(C)c4ccccc34)C1=O)C2`: the TGI in the test with DMS 114 small cell lung, with HOP-18 NSCLC, with SK-MEL-28 melanoma, in the test on KM20L2 colon and in the test on DMS 273 small cell lung was more than 100 µM in each case.

Take `O=C(O)CSc1n[nH]c(-c2ccc(O)cc2)n1`: the TGI in the test with KM12 colon, in the test with DMS 114 small cell lung, with HOP-18 NSCLC, with SK-MEL-28 melanoma, in the test with KM20L2 colon and in the test with DMS 273 small cell lung was more than 100 µM in each case.

As to `O=C(O)c1c(-c2cccc3ccccc23)sc(-c2cccc3ccccc23)c1C(=O)O`, the TGI with KM12 colon, with DMS 114 small cell lung, with HOP-18 NSCLC, in the test on SK-MEL-28 melanoma, in the test on KM20L2 colon and in the test on DMS 273 small cell lung was more than 100 µM in each case.

Regarding `CC1=C(C(=O)Nc2ccccc2C)C(c2ccccc2)C(C(=O)Nc2ccccc2C)=C(C)N1`, the TGI with KM12 colon, in the test with DMS 114 small cell lung, in the test with HOP-18 NSCLC, with SK-MEL-28 melanoma, in the test on KM20L2 colon and with DMS 273 small cell lung was more than 100 µM in each case.

For the molecule `COc1cc(OC)c([C@@H]2OC(=O)C3C2C(=O)O[C@H]3c2cc(OC)c(OC)cc2OC)cc1OC` (some centres not stated), the TGI in the test on KM12 colon, in the test with DMS 114 small cell lung, with HOP-18 NSCLC, in the test on SK-MEL-28 melanoma, with KM20L2 colon and with DMS 273 small cell lung was more than 100 µM throughout.

Consider `CCc1cccc(C(C)C)c1NC(=O)C(=O)C(Cc1nc2ccccc2[nH]c1=O)C(=O)OC` (configuration not stated), for which the TGI is more than 100 µM in the test with KM12 colon; 30.5 µM with DMS 114 small cell lung; more than 100 µM with HOP-18 NSCLC; more than 100 µM with SK-MEL-28 melanoma; more than 100 µM with KM20L2 colon; more than 100 µM in the test with DMS 273 small cell lung.

Regarding `CC1OC(OCC2OC(Oc3c(-c4ccc(O)cc4)oc4cc(O)cc(O)c4c3=O)C(OC3OCC(O)(CO)C3O)C(O)C2O)C(O)C(O)C1O` (configuration not stated), the TGI in the test with KM12 colon, in the test on DMS 114 small cell lung, in the test on HOP-18 NSCLC, in the test with SK-MEL-28 melanoma, in the test with KM20L2 colon and in the test with DMS 273 small cell lung was more than 100 µM throughout.

Consider `COc1ccc(C(=O)/C(Br)=C/C(=O)O)cc1`, for which the GI50 in the test on NCI/ADR-RES ovarian was 18.3 µM; in the test on HS 578T breast, 43.1 µM and 30.9 µM; in the test on T-47D breast, 15.7 µM; in the test on MCF7 breast it was 7.41 µM. The TGI was 387 µM and 116 µM with NCI/ADR-RES ovarian; 48.8 µM and 48 µM with KM12 colon; 114 µM in the test on DMS 114 small cell lung; 139 µM in the test on HOP-18 NSCLC; 649 µM and 399 µM in the test with HS 578T breast; 149 µM and 260 µM in the test with T-47D breast. Further, the TGI in the test on SK-MEL-28 melanoma is 89.1 µM and 89.4 µM; in the test on MCF7 breast, 44.5 µM and 59.9 µM; with KM20L2 colon it was 185 µM; in the test with DMS 273 small cell lung, 26.3 µM.

On to `COc1cccc2cc(C)c(C(=O)c3ccccc3)nc12`, for which the TGI in the test on KM12 colon, with DMS 114 small cell lung, with HOP-18 NSCLC, in the test with SK-MEL-28 melanoma, with KM20L2 colon and in the test with DMS 273 small cell lung was more than 100 µM throughout.

Regarding `O=C1CC(O)C=C1Nc1ccc(Cl)cc1` (configuration not stated), the TGI was 39.2 µM with KM12 colon; more than 100 µM with DMS 114 small cell lung; more than 100 µM in the test with HOP-18 NSCLC; more than 100 µM in the test with SK-MEL-28 melanoma; 37.8 µM in the test with KM20L2 colon; more than 100 µM in the test on DMS 273 small cell lung.

With `CC(=O)C1CC(C)=CCC12C(=O)Nc1ccccc12` (configuration not stated), the TGI in the test with KM12 colon, in the test with DMS 114 small cell lung, in the test with HOP-18 NSCLC, in the test on SK-MEL-28 melanoma, with KM20L2 colon and in the test on DMS 273 small cell lung was more than 100 µM each time.
